According to patent publication US8975246B2, “Bile acid or bile salt fatty acid conjugates” (Galmed Research and Development Ltd., priority 2001, dated 2015):

Legend:
Format in all cases: in vivo
[1] = tested on: C57 male inbred mice; assay: Fatty liver histologic score, mice on Western diet; details: Western diet + BAFAC 150 mg/kg/day, 4 W
Protocol: The presence of fatty liver was evaluated by a pathologist unaware of the treatments, scoring coded slides in a blinded manner.
The scoring system was as follows:
C57 male inbred mice (Jackson Lab., Maine, USA) 4-6 weeks old weighing 20-25 gm were used. They were fed a “Western” diet (George et. al. Circulation 2000, 102:1822-27) containing cholesterol 1.5 gm/kg and Fat 42%, Carbohydrates 43%, and Protein 15% (as % of calories). Half were given in addition 150 mg/kg/day of 3β-arachidylamido-7α,12α-dihydroxy-5β-cholan-24-oic acid suspended in saline by intragastric gavage. The other half were similarly given saline only. After 4 weeks the animals were anesthetized and sacrificed. Liver and other organs were removed and placed in formaline prior to histologic examination

[2] = tested on: human patients; assay: Human study: change in glucose; set-up: Change from Baseline in Glucose, Mean / Change from Baseline in Glucose, Median / Change from Baseline in Glucose, Max: unit not given here
Protocol: (§1) The effects of BAFACs on disorders associated with Fatty liver, insulin resistance and altered glucose metabolism were tested on 60 human patients. Experiments were subdivided to 2 dosage regimens: Aramchol 300 mg daily (high dose) and 100 mg daily (low dose) respectively for a total period time of 3 months. The Aramchol:placebo ratio is of 2:1 for the low dose arm, and 1:1 for the high dose arms.
(§2) The study period included a 3 month treatment period with Aramchol low dose, or Aramchol high dose, or placebo, and a one month follow-up period. Aramchol was given daily orally. During the treatment period, all patients attended periodic […] (at first month) and subsequently monthly study-center visits in order to assess safety and efficacy of the treatment.
(§3) The results are shown using two known in the art principle statistical evaluation on, Intention-To-Treat (ITT) and Per Protocol (PP) populations. The ITT principle asserts that the effect of a treatment policy can be best assessed by evaluation on the basis of the intention to treat a subject (i.e. the planned treatment regimen) rather than the actual treatment given. It has the consequence that subjects allocated to a treatment group should be followed up, assessed and analyzed as members of that group irrespective of their compliance to the planned course of treatment. […] Compliance covers such considerations as exposure to treatment, availability of measurements and absence of major protocol violations.

[3] = tested on: Golden Syrian Hamsters; assay: Serum cholesterol of hamsters on lithogenic diet; details: Lithogenic diet 1 + BAFAC II 150 mg/kg/day by gavage, 10 W
Protocol: Golden Syrian Hamsters-(Anilab, Rehovot, Israel) 4-6 weeks old weighing 90-110 gm were used. They were fed a lithogenic diet (No. 1) consisting of their regular diet supplemented with (w/w) cholesterol 1%, Palmitic Acid 1.2%, Corn Oil 2% (modified from Ayvad et al., Lipids, 1992; 27:993-998) for 10 weeks. Half of the animals were given in addition 3β-arachidylamido-7α,12α-dihydroxy-5β-cholan-24-oic acid at a dose of 150 mg/kg/day suspended in saline, by intragastric gavage. The control animals were similarly given an equal volume of saline. After ten weeks the animals were anesthetized, heart blood was drawn for analysis. The liver and other organs were removed. Serum cholesterol levels were determined by autoanalyzer.

[4] = tested on: human patients; assay: Human study: change in HOMA (insulin resistance); details: for Change in HOMA from Baseline, Max / Change in HOMA from Baseline, Mean / Change in HOMA from Baseline, Median / Change in HOMA from Baseline, Min: 3 months
Protocol: as §1, §2, §3
Homeostatic model assessment (HOMA) is a method used to quantify insulin resistance and beta-cell function. The Dunnett method is used for multiple comparisons with a control group, and adjusts the data by age, gender, diagnosis, baseline HbA1c and baseline weight.

[5] = Aramchol 100 mg/d, Visit 3, ITT
[6] = Aramchol 100 mg/d, Visit 4, ITT
[7] = Aramchol 100 mg/d, Visit 5, ITT
[8] = Aramchol 100 mg/d, Visit 6, ITT
[9] = Aramchol 100 mg/d, Visit 7, ITT
[10] = Aramchol 300 mg/d, Visit 3, ITT
[11] = Aramchol 300 mg/d, Visit 4, ITT
[12] = Aramchol 300 mg/d, Visit 5, ITT
[13] = Aramchol 300 mg/d, Visit 6, ITT
[14] = Aramchol 300 mg/d, Visit 7, ITT

CCCCCCCCCCCCCCCCCCCC(=O)N[C@H]1CC[C@@]2(C)[C@@H](C1)C[C@@H](O)[C@@H]1[C@@H]2C[C@H](O)[C@]2(C)[C@@H]([C@H](C)CCC(=O)O)CC[C@@H]12 [Aramchol, 3β-arachidylamido-7α,12α-dihydroxy-5β-cholan-24-oic acid]
Fatty Liver Scores: number of animals with score 0 ([1]; n 14, 0 - No fatty liver): 12
Fatty Liver Scores: number of animals with score 1 ([1]; n 14, 1 - Minimal fatty liver): 1
Fatty Liver Scores: number of animals with score 4 ([1]; n 14, 4 - Severe fatty liver): 1
Fatty Liver Score, mean ([1]; score 0 (no fatty liver) to 4 (severe, >50% of liver surface)): 0.35
Change from Baseline in Glucose, Max [2, 5]: 17.0
Change from Baseline in Glucose, Mean [2, 5]: −2.0
Change from Baseline in Glucose, Median [2, 5]: 0.0
Change from Baseline in Glucose, Min [2, 5]: −38.0
Change from Baseline in Glucose, Max [2, 6]: 16.0
Change from Baseline in Glucose, Mean [2, 6]: −2.2
Change from Baseline in Glucose, Median [2, 6]: 1.0
Change from Baseline in Glucose, Min [2, 6]: −33.0
Change from Baseline in Glucose, Max [2, 7]: 21.0
Change from Baseline in Glucose, Mean [2, 7]: −1.0
Change from Baseline in Glucose, Median [2, 7]: 0.5
Change from Baseline in Glucose, Min [2, 7]: −30.0
Change from Baseline in Glucose, Max [2, 8]: 39.0
Change from Baseline in Glucose, Mean [2, 8]: −1.1
Change from Baseline in Glucose, Median [2, 8]: −2.0
Change from Baseline in Glucose, Min [2, 8]: −32.0
Change from Baseline in Glucose, Max [2, 9]: 23.0
Change from Baseline in Glucose, Mean [2, 9]: 0.8
Change from Baseline in Glucose, Median [2, 9]: −1.0
Change from Baseline in Glucose, Min [2, 9]: −41.0
Change from Baseline in Glucose, Max [2, 10]: 19.0
Change from Baseline in Glucose, Mean [2, 10]: −1.3
Change from Baseline in Glucose, Median [2, 10]: 1.0
Change from Baseline in Glucose, Min [2, 10]: −32.0
Change from Baseline in Glucose, Max [2, 11]: 16.0
Change from Baseline in Glucose, Mean [2, 11]: −2.4
Change from Baseline in Glucose, Median [2, 11]: −1.5
Change from Baseline in Glucose, Min [2, 11]: −24.0
Change from Baseline in Glucose, Max [2, 12]: 18.0
Change from Baseline in Glucose, Mean [2, 12]: −3.3
Change from Baseline in Glucose, Median [2, 12]: −5.0
Change from Baseline in Glucose, Min [2, 12]: −46.0
Change from Baseline in Glucose, Max [2, 13]: 13.0
Change from Baseline in Glucose, Mean [2, 13]: −2.0
Change from Baseline in Glucose, Median [2, 13]: −2.5
Change from Baseline in Glucose, Min [2, 13]: −22.0
Change from Baseline in Glucose, Max [2, 14]: 82.0
Change from Baseline in Glucose, Mean [2, 14]: 3.8
Change from Baseline in Glucose, Median [2, 14]: 3.0
Change from Baseline in Glucose, Min [2, 14]: −22.0
glucose levels (in words) ([2]; Aramchol 300 mg/d, tested subjects, Table 7): remarkably reduces glucose levels
Serum Cholesterol (mean + StD) [3]: 202 (59.6) mg %
Change in HOMA from Baseline, Max ([4]; Aramchol 100 mg/d oral, ITT): 11.70
Change in HOMA from Baseline, Mean ([4]; Aramchol 100 mg/d oral, ITT): 1.25
Change in HOMA from Baseline, Median ([4]; Aramchol 100 mg/d oral, ITT): 0.20
Change in HOMA from Baseline, Min ([4]; Aramchol 100 mg/d oral, ITT): −2.00
Change in HOMA from Baseline, Max ([4]; Aramchol 100 mg/d oral, PP): 11.70
Change in HOMA from Baseline, Mean ([4]; Aramchol 100 mg/d oral, PP): 1.13
Change in HOMA from Baseline, Median ([4]; Aramchol 100 mg/d oral, PP): 0.20
Change in HOMA from Baseline, Min ([4]; Aramchol 100 mg/d oral, PP): −2.00
Change in HOMA from Baseline, Max ([4]; Aramchol 300 mg/d oral, ITT): 2.80
Change in HOMA from Baseline, Mean ([4]; Aramchol 300 mg/d oral, ITT): −7.74
Change in HOMA from Baseline, Median ([4]; Aramchol 300 mg/d oral, ITT): 0.20
Change in HOMA from Baseline, Min ([4]; Aramchol 300 mg/d oral, ITT): −139.60
Change in HOMA from Baseline, Max ([4]; Aramchol 300 mg/d oral, PP): 2.80
Change in HOMA from Baseline, Mean ([4]; Aramchol 300 mg/d oral, PP): −7.74
Change in HOMA from Baseline, Median ([4]; Aramchol 300 mg/d oral, PP): 0.20
Change in HOMA from Baseline, Min ([4]; Aramchol 300 mg/d oral, PP): −139.60
insulin resistance (in words) ([4]; Aramchol 300 mg/d, tested subjects, Tables 3 and 4): reduces insulin resistance
